Test results published in patent publication US20250115569A1, “SULFONAMIDE COMPOUNDS FOR THE TREATMENT OF NEUROLOGICAL CONDITIONS” (LARIO THERAPEUTICS LIMITED, priority 2021, published 2025).

biological target: Cav2.3 (Homo sapiens, UniProt Q15878); experiment: Human Cav2.3 channel calcium-influx assay; type: cell-based; details: Fluo8 fluorescence, HEK-293 T-Rex/Kir2.1/Cav2.3e cells, without pluronic acid, read-out: Cav2.3 (pIC50) (converted)
Summary of the method: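 Signal = peak fluorescence (5–130 s) minus baseline (1–2 s), normalized to neutral (0) and inhibitor (−100) controls as % effect. Depolarization used final 20 mM KCl, 130 mM NaCl, 2 mM CaCl2, after 3 min RT compound exposure (30 μM top, half-log, 8 points, 0.3% DMSO) in doxycycline-induced HEK-293 T-Rex/Kir2.1/Cav2.3e-β4-α2δ1 cells with Fluo8 NW.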

Chain of Cav2.3 (Q15878 whole entry, looked up): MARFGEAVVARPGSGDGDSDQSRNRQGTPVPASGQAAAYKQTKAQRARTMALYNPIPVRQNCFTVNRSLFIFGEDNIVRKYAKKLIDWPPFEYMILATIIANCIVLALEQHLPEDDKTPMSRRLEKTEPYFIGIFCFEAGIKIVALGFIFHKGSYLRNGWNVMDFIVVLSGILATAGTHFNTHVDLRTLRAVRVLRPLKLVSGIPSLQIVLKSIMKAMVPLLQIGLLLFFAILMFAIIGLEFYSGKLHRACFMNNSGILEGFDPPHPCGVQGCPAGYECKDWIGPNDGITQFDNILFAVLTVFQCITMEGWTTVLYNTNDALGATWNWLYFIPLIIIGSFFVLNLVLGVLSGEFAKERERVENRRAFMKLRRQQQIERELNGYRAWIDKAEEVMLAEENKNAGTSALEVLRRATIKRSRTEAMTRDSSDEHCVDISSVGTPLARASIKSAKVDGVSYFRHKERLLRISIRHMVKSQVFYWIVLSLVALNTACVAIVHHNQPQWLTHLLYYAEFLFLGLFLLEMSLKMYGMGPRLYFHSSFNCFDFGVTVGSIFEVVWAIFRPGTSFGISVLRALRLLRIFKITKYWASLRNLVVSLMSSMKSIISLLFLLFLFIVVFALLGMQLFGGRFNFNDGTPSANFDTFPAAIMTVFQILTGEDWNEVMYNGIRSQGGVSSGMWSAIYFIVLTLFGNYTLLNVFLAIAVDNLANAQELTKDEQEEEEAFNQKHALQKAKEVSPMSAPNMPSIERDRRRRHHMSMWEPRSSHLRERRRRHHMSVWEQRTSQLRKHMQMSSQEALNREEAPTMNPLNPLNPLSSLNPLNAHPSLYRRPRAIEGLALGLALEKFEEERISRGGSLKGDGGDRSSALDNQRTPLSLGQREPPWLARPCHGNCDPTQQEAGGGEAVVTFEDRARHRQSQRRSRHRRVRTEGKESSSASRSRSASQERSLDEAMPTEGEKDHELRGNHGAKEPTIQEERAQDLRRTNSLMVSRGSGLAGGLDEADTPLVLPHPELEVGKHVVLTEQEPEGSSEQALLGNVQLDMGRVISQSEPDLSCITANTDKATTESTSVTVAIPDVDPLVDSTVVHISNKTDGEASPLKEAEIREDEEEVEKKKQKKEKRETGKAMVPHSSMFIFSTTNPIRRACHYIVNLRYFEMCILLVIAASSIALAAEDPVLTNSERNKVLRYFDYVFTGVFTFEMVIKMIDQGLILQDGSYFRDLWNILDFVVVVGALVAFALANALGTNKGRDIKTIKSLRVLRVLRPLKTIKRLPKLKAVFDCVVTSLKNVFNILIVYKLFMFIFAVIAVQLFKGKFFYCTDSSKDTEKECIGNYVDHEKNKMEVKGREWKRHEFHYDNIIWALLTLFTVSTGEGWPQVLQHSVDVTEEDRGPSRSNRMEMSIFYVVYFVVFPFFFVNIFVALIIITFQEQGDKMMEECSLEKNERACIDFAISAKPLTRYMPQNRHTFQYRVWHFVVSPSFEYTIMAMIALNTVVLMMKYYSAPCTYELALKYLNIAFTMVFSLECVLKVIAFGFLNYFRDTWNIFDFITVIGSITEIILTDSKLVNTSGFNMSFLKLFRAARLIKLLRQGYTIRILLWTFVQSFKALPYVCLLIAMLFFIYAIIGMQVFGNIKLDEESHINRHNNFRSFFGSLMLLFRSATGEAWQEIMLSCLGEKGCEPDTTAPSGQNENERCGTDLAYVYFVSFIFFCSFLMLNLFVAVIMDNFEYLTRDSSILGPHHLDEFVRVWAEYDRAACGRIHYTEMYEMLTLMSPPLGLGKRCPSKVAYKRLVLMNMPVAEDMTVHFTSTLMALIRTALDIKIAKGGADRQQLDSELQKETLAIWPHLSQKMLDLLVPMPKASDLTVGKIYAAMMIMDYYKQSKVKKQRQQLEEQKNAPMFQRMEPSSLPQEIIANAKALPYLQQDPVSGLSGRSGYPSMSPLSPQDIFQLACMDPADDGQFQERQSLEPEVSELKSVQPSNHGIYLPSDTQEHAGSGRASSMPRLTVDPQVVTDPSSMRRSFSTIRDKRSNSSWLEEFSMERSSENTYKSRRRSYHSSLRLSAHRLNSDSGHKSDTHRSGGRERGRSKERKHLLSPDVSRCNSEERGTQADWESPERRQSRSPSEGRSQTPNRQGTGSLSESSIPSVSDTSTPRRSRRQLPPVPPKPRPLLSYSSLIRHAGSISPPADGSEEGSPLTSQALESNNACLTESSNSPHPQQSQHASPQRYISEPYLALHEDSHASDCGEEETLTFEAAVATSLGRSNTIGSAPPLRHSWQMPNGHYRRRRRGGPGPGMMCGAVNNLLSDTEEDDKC

IC50 [nM] | Structure (SMILES)
5750 | CCN([C@H](c1ccc(F)cc1)C(F)(F)F)S(=O)(=O)c1ccc2nnc(C(F)(F)F)n2n1 [Example 169, (R)—N-ethyl-N-(2,2,2-trifluoro-1-(4-fluorophenyl)ethyl)-3-(trifluoromethyl)-[1,2,4]triazolo[4,3-b]pyridazine-6-sulfonamide]
13200 | CN([C@H](c1ccc(F)cc1)C(F)(F)F)S(=O)(=O)c1ccc2nnc(C(F)(F)F)n2n1 [Example 170, (R)—N-methyl-N-(2,2,2-trifluoro-1-(4-fluorophenyl)ethyl)-3-(trifluoromethyl)-[1,2,4]triazolo[4,3-b]pyridazine-6-sulfonamide]
11200 | CCN([C@H](c1ccc(F)cc1)C(F)(F)F)S(=O)(=O)c1nn(CC)c2cccnc12 [Example 173, (R)—N,1-diethyl-N-(2,2,2-trifluoro-1-(4-fluorophenyl)ethyl)-1H-pyrazolo[4,3-b]pyridine-3-sulfonamide]
18600 | CCN([C@H](c1ccc(F)cc1)C(F)(F)F)S(=O)(=O)c1n[nH]c2cccnc12 [Example 174, (R)—N-ethyl-N-(2,2,2-trifluoro-1-(4-fluorophenyl)ethyl)-1H-pyrazolo[4,3-b]pyridine-3-sulfonamide]
302 | CCN([C@H](c1ccc(F)cc1)C(F)(F)F)S(=O)(=O)c1ccnc2[nH]ccc12 [Example 175, (R)—N-ethyl-N-(2,2,2-trifluoro-1-(4-fluorophenyl)ethyl)-1H-pyrrolo[2,3-b]pyridine-4-sulfonamide]
91.2 | CCN([C@H](c1ccc(F)cc1)C(F)(F)F)S(=O)(=O)c1cnc2cccnn12 [Example 176, (R)—N-ethyl-N-(2,2,2-trifluoro-1-(4-fluorophenyl)ethyl)imidazo[1,2-b]pyridazine-3-sulfonamide]
33.9 | CCN([C@H](c1ccc(F)cc1)C(F)(F)F)S(=O)(=O)c1cnc2ncccn12 [Example 177, (R)—N-ethyl-N-(2,2,2-trifluoro-1-(4-fluorophenyl)ethyl)imidazo[1,2-a]pyrimidine-3-sulfonamide]
661 | CN([C@H](c1ccc(Cl)cc1)C(F)(F)F)S(=O)(=O)c1cnc2nsnc2c1 [Example 179, (R)—N-(1-(4-chlorophenyl)-2,2,2-trifluoroethyl)-N-methyl-[1,2,5]thiadiazolo[3,4-b]pyridine-6-sulfonamide]
447 | CCN([C@H](c1ccc(F)cc1)C(F)(F)F)S(=O)(=O)c1ccc2nc(C)cn2n1 [Example 180, (R)—N-ethyl-2-methyl-N-(2,2,2-trifluoro-1-(4-fluorophenyl)ethyl)imidazo[1,2-b]pyridazine-6-sulfonamide]
537 | CCN([C@H](c1ccc(F)cc1)C(F)(F)F)S(=O)(=O)c1cc2cc[nH]c2cn1 [Example 181, (R)—N-ethyl-N-(2,2,2-trifluoro-1-(4-fluorophenyl)ethyl)-1H-pyrrolo[2,3-c]pyridine-5-sulfonamide]
288 | CCN([C@H](c1ccc(F)cc1)C(F)(F)F)S(=O)(=O)c1cccc2[nH]ncc12 [Example 182, (R)—N-ethyl-N-(2,2,2-trifluoro-1-(4-fluorophenyl)ethyl)-1H-indazole-4-sulfonamide]
240 | CN([C@H](c1ccc(F)cc1)C(F)(F)F)S(=O)(=O)c1cnc2ccnn2c1 [Example 183, (R)—N-methyl-N-(2,2,2-trifluoro-1-(4-fluorophenyl)ethyl)pyrazolo[1,5-a]pyrimidine-6-sulfonamide]
155 | CCN([C@H](c1ccc(F)cc1)C(F)(F)F)S(=O)(=O)c1ccc2nc[nH]c2c1 [Example 185, (R)—N-ethyl-N-(2,2,2-trifluoro-1-(4-fluorophenyl)ethyl)-1H-benzo[d]imidazole-6-sulfonamide]
19.1 | CN([C@H](c1ccc(Cl)cc1)C(F)(F)F)S(=O)(=O)c1cnc2ccccn12 [Example 187, (R)—N-(1-(4-chlorophenyl)-2,2,2-trifluoroethyl)-N-methylimidazo[1,2-a]pyridine-3-sulfonamide]
